This is an account of results in patent US20260069694A1, “IDENTIFICATION OF HIGHLY IMMUNOSUPRESIVE TREG POPULATION IN TUMOR MICROENVIRONMENTS” (THE TRUSTEES OF COLUMBIA UNIVERSITY IN THE CITY OF NEW YORK, priority 2023, published 2026).

This test has as its system Tregs and CD8+ T cells in PDAC tissue and spleen. Put plainly: Orthotopic KPC-derived PDAC mice: flow cytometry and IF of T cells in tumor and spleen. Format: in vivo, mouse. On the procedure: The treatment studies in orthotopic syngeneic PDAC mice were performed as follows. Eight days after orthotopic implantation of 5.0×10^5 KPC-derived PDAC cells, the mice were randomized into respective treatment cohorts, such as intravenous (IV) phosphate buffered saline (PBS) alone, IV iRGD alone (300 μg/25 g), IV PBS+IP antimouse PD-L1 mAb (200 μg/mouse; clone MIH6; BioLegend™), IV iRGD+IP anti-mouse PD-L1 mAb, IV PBS+IV Gem (4 mg/kg; MilliporeSigma™), and IV iRGD+IV GEM+IP anti-mouse PD-L1 mAb. The treatment was given 3 times a week for 2 weeks starting 8 days after tumor cell implantation. The tumors and major organs were harvested at the end of the studies on day 22, weighed, and processed for flow cytometry, IF, and IHC. The treatment studies were terminated according to the guidelines by the IACUC at Columbia University. Treatment studies in transgenic KPC mice were performed as previously described.
Tumors from orthotopic PDAC mice were minced into 2-4 mm pieces and added with an enzyme mix from a tumor dissociation kit (Miltenyi Biotec™) in Roswell Park Memorial Institute medium 1640 (Cytiva™). The tissues were dissociated using a gentle MACS Dissociator (Miltenyi Biotec™) followed by a 40-minute incubation at 37° C. The samples were then centrifuged for 10 minutes at 3000×g in the presence of debris removal solution (Miltenyi Biotec™) and 10 minutes at 1000×g in cooled PBS. The supernatant was aspirated to remove the debris. Splenocytes were prepared by gently grinding the spleen and filtrating the resulting cell suspension through a 40 μm cell strainer. Red cells were lysed with an ACK lysing buffer (Thermo Fisher Scientific™
Immune cells isolated from the tumor or spleen, or cells cultured in vitro were tested for surface marker by staining with the following reagents for 20 minutes at 4° C.: Brilliant Violet 650™-conjugated anti-mouse CD3 Ab (clone 17A2; BioLegend), PerCP/Cyanine5.5-conjugated anti-mouse CD4 Ab (clone GK1.5; BioLegend™), PE/Cyanine7-conjugated antimouse CD8a Ab (clone 53-6.7; BioLegend™), PE-conjugated anti-mouse CD25 Ab (clone 7D4; Miltenyi Biotec™), PE/Cyanine7-conjugated anti-mouse CD25 Ab (clone PC61; BioLegend™), Brilliant Violet 421™ or 711™-conjugated anti-mouse CD304/NRP-1 Ab (clone 3E12; BioLegend™), Alexa Fluor® 647-conjugated anti-mouse integrin αvβ5 Ab (clone ALULA; BD Biosciences™), PE-conjugated anti-mouse CD198 (CCR8) Ab (clone SA214G2; BioLegend™), Zombie NIR™ (BioLegend™), or Aqua™ Fixable Viability Kit (BioLegend™). Intracellular staining of immune cells was performed using the following Abs and a Foxp3 staining buffer kit (eBioscience) according to the manufacturer's instructions: Brilliant Violet 421™-conjugated anti-Foxp3 Ab (FJK-16s; eBioscience™) Pacific Blue™-conjugated anti-mouse Foxp3 Ab (clone MF-14; BioLegend™), cleaved caspase-3 (Asp175) (5A1E) rabbit mAb (Cell Signaling™), and Alexa Flour™ 488-conjugated donkey anti-rabbit secondary Ab (Thermo Fisher Scientific™)
The Effect of iRGD Therapy on the Proportion of CD8+ T cells, Tregs, and Non-Treg CD4+ T Cells in the PDAC Tissue and the Spleen was tested. C57B6129SF1/J hybrid mice bearing orthotopic KPCderived PDAC tumors were treated with PBS or iRGD 3 times a week for 2 weeks. The tumors and spleen were collected 3, 7 and 14 days after the treatment was started. The proportion of CD8+ T cells, CD4+CD25+ T cells (Tregs), and CD4+CD25neg T cells (non-Tregs) in the tumors (FIG. 6A) and the spleen (FIG. 6B) were analyzed by flow cytometry (n=3 per arm).
In addition, C57B6129SF1/J hybrid mice bearing KPC-derived orthotopic PDAC tumors were intravenously treated with PBS or iRGD 3 times a week for 2 weeks. Tumors and spleen were collected at 3, 7 and 14 days after the treatment was started. […]

On to CRGDKGPDC [iRGD], for which the “proportion of Tregs in the PDAC tissue” value (CD4+CD25+ Tregs among CD4+ T cells, tumor, in 7 days, vs PBS) is given as “significantly reduced the proportion of Tregs”. In addition, for the setting “spleen of the PDAC mice”, the “CD8/Treg ratio in the spleen” value was “did not affect”, the “proportion of CD8+ T cells in the spleen” value is recorded as “did not affect” and the “proportion of Tregs in the spleen” value was “did not affect”. The “proportion of CD8+ T cells in the PDAC tissue” value (tumor, flow cytometry, vs PBS) was “increased the proportion of CD8+ T cells”. Moreover, the “CD8/Treg ratio in the PDAC tissue” value (tumor, in 7 days, vs PBS) is reported as “significantly increased the CD8/Treg ratio”.
